Laboratory results from patent US11117888B2, “Irreversible inhibitors of pyruvate kinase M2 and the use thereof” (China Medical University, priority 2020, dated 2021).

Assays:
Assay type in all cases: cell-based, human
lung cancer cell lines = assay: MTT cell viability assay, panel of lung cancer cell lines
Excerpt: Cell lines, cell culture, biochemical reagents, and antibodies. MiaPaCa-2, AsPC-1, and Panc-1 human pancreatic cancer cells, MCF-7 and MDA-MB-231 breast cancer cells, SCC4 and SCC2059 oral cancer cells, PC-3 and LNCaP prostate cancer cells, H157, H460, H1975, PC-9 and H1650 lung cancer cells were obtained from the American Type Culture Collection (ATCC, Manassas, Va.). All these cells were maintained in recommended growth medium (RPMI 1640 or DMEM) supplemented with 10% fetal bovine serum (FBS) (Invitrogen, Carlsbad, Calif., USA) and antibiotics at 37° C. in a humidified incubator containing 5% CO2. For SILAC experiments, PC-9 cells were grown in SILAC DMEM medium (Thermo Fisher) supplemented with 10% dialyzed FBS and 100 μg/mL each of unlabeled L-arginine and L-lysine (light medium) or ^13C/^15N stable isotope-labeled L-arginine and L-lysine (heavy medium). […]
Cell viability assays. Drug effects on cell viability was assessed by 3-(4,5-dimethylthiazol-2-yl)-2,5-diphenyltetrazolium bromide ([…]) assays. […] The medium was then removed from each well and replaced with DMSO to dissolve the reduced MTT dye for subsequent colorimetric measurement of absorbance at 560 nm. Cell viabilities are expressed as percentages of viable cells relative to the corresponding vehicle-treated control group.

PC-9 cells = assay: ABPP-SILAC proteomic target identification; conditions: 1 μM, 1 hour, LC-MS/MS
Procedure: As part of our effort to identify compound 1's target(s), we embarked on the use of compound 2 as an ABPP probe to conduct SILAC-based proteomic analysis. […] In this experiment, PC-9 cells were grown in cultural medium supplemented with unlabeled L-arginine and L-lysine (light medium) versus ^13C/^15N stable isotope-labeled L-arginine and L-lysine (heavy medium), generating two populations of cells (light versus heavy cells). Heavy PC-9 cells were then exposed to the ABPP (1 μM) for 1 hour to allow intracellular labelling of target proteins, while light cells were treated with DMSO vehicle under the same condition. […] These peptide mixtures were analyzed by liquid chromatography-tandem mass spectrometry (LC-MS/MS), and the resulting data were searched against various primary sequence databases by using the Mascot search engine. […]
SILAC analysis and click chemistry. […] The supernatant was transferred to a 1.5 mL microfuge tube, and the protein concentration was determined by the BCA protein assay (Thermo Fisher Scientific) and then normalized to 1 mg/mL. […]
Proteomic data analysis. Putative target proteins of compound 1 and protein-protein interaction network were identified and analyzed, respectively, through a web-based search of the STRING database (https://string-db.org/). […]

[1] = tested on: PKM2, EGFR, Stat3, β-catenin in PC-9 cells; assay: Immunoblot analysis of oncogenic effectors in PC-9 cells; conditions: Western blot, 24 hours
Procedure: Immunoblot analysis. PC-9 cells were seeded into 6 cm dish at a concentration of 5×10^5 cells/mL. After 24 hours, cells were treated with 0-1 μM compound 1 or DMSO alone for 24 hours. The cells were harvested at 24 hours, and protein extractions were carried out. The protein lysate was subjected to 10% SDS-PAGE and transferred to a nitrocellulose membrane (GE Healthcare Life Sciences). Protein expression was analyzed by Western blotting using primary antibodies against PKM2, EGFR, p-STAT3, STAT3, p-β-catenin (Cell Signaling Technology), β-catenin (Santa Cruz Biotechnology) and β-actin (Sigma-Aldrich), followed by incubation with horseradish peroxidase-conjugated secondary (Jackson ImmunoResearch Laboratories). Specific proteins were detected by chemiluminescence using ECL Plus Western Blotting Detection Reagents (GE Healthcare Biosciences).

[2] = tested on: pyruvate kinase activity in PC-9 cells; assay: Pyruvate kinase activity assay in PC-9 cells; conditions: 0.25 μM, 6 hours, relative to vehicle control
Procedure: Pyruvate kinase activity assays. PC-9 cells were seeded into 6 cm dishes at a concentration of 5×10^5 cells/mL. After 24 hours, cells were treated with 0.25 μM compound 1 or DMSO for 6 hours. The pyruvate kinase activity of compound 1-treated PC-9 and vehicle control cells was measured by using a commercial colorimetric assay kit from BioVision (Milpitas, Calif., USA) according to the manufacturer's protocol. In addition, to verify the specificity of compound 1 toward PKM2 versus PKM1, the inhibition of the kinase activity of recombinant PKM1 (SRP0415, Sigma-Aldrich) and recombinant PKM2 (SAE0021, Sigma-Aldrich) by compound 1 was conducted using the aforementioned assay kit.

## C#CCOc1ccc(-c2ccc(-c3cc(CCC(=O)NC)nn3-c3ccc(NC(=O)C#C)cc3)cc2)cc1 [compound 2, N-(4-(3-(3-(Methylamino)-3-oxopropyl)-5-(4′-(prop-2-yn-1-yloxy)-[1,1′-biphenyl]-4-yl)-1H-pyrazol-1-yl)phenyl)propiolamide]
Lung cancer cell lines
  antiproliferative effect in lung cancer cell lines: pattern of growth inhibition similar to that of compound 1
PC-9 cells
  protein targets labelled by ABPP probe: the protein with the highest matching score was the 58 kDa PKM2

## C#CC(=O)Nc1ccc(-n2nc(CCc3nnc(C)o3)cc2-c2ccc(-c3ccc(C(F)(F)F)cc3)cc2)cc1 [compound 3]
[1]
  expression and/or phosphorylation of PKM2, EGFR, Stat3, β-catenin: high efficacy in suppressing the phosphorylation/expression of various oncogenic biomarkers
[2]
  pyruvate kinase activity in cells: equipotent in suppressing PKM2 kinase activity relative to compound 1
Lung cancer cell lines
  antiproliferative effect in lung cancer cell lines: high antiproliferative potencies
